According to patent US20060223996A1, “IL-12 modulatory compounds” (Synta Pharmaceuticals Corp., priority 2004, published 2006):

Test system: IL-12
Test: Human in vitro assay: inhibition of IL-12 production in IFNγ/LPS- or IFNγ/SAC-stimulated human PBMC or THP-1 cells (ELISA)
Format: cell-based
Settings: read-out: IC50 Range (representative in vitro IC50 data)
In short: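 PBMC (5×10^5 cells/well) primed with IFNγ 30 U/mL for 22 h then LPS 1 μg/mL, or IFNγ 100 U/mL then SAC 0.01%; THP-1 primed with IFNγ 100 U/mL for 22 h then SAC 0.025%, with compound in 0.25% DMSO. Supernatant IL-12 p70/p40 measured by sandwich ELISA after 18 h; IC50 derived; viability by MTS.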

IC50 [nM]	SMILES
< 1000	Cc1[nH]c2ccc(NC(=O)c3cc(NCC(=O)N4CCC(C(N)=O)CC4)nc(N4CCOCC4)n3)cc2c1C [Compound 99, 6-[2-(4-Carbamoyl-piperidin-1-yl)-2-oxo-ethylamino]-2-morpholin-4-yl-pyrimidine-4-carboxylic acid (2,3-dimethyl-1H-indol-5-yl)-amide]
< 1000	O=C(Nc1ccc2[nH]ccc2c1)Nc1cc(OCCN2CCOCC2)nc(N2CCOCC2)n1 [Compound 137, 1-(1H-Indol-5-yl)-3-[2-morpholin-4-yl-6-(2-morpholin-4-yl-ethoxy)-pyrimidin-4-yl]-urea]
< 1000	CO/N=C(\C)c1cccc(NC(=O)c2cc(OCCN3CCOCC3)nc(N3CCOCC3)n2)c1 [Compound 154, (E)-N-(3-(1-(methoxyimino)ethyl)phenyl)-2-morpholino-6-(2-morpholinoethoxy)pyrimidine-4-carboxamide]
< 1000	Cc1cc(NC(=O)Nc2ccc3[nH]c(C)c(C)c3c2)nc(N2CCOCC2)n1 [Compound 263, 1-(2,3-dimethyl-1H-indol-5-yl)-3-(6-methyl-2-morpholinopyrimidin-4-yl)urea]
≥ 1000	CC1CCc2ccc(NC(=O)c3cc(OCCN4CCOCC4)nc(N4CCOCC4)n3)cc2N1 (stereo not shown) [Compound 299, 2-Morpholin-4-yl-6-(2-morpholin-4-yl-ethoxy)-pyrimidine-4-carboxylic acid (2-methyl-1,2,3,4-tetrahydro-quinolin-7-yl)-amide]
≥ 1000	O=C(Nc1cccc2ncccc12)c1cc(OCCc2ccccn2)nc(N2CCOCC2)n1 [Compound 39, 2-Morpholin-4-yl-6-(2-pyridin-2-yl-ethoxy)-pyrimidine-4-carboxylic acid quinolin-5-ylamide]
< 1000	Cc1[nH]c2ccc(NC(=O)c3cc(N(CCO)CCO)nc(N4CCOCC4)n3)cc2c1C [Compound 91, 6-[Bis-(2-hydroxy-ethyl)-amino]-2-morpholin-4-yl-pyrimidine-4-carboxylic acid (2,3-dimethyl-1H-indol-5-yl)-amide]
≥ 1000	COCCN(C)c1cc(C(=O)Nc2cc(C(C)(C)C)ccc2O)nc(N2CCOCC2)n1 [Compound 225, 6-[(2-Methoxy-ethyl)-methyl-amino]-2-morpholin-4-yl-pyrimidine-4-carboxylic acid (5-tert-butyl-2-hydroxy-phenyl)-amide]
< 1000	Cc1[nH]c2ccc(NC(=O)c3cc(N(C)C)nc(N4CCOCC4)n3)cc2c1C [Compound 248, N-(2,3-dimethyl-1H-indol-5-yl)-6-(dimethylamino)-2-morpholino-pyrimidine-4-carboxamide]
< 1000	CCc1c[nH]c2ccc(NC(=O)c3cc(N4CCN(C(C)=O)CC4)cc(N4CCOCC4)n3)cc12 [Compound 181, 4-(4-Acetyl-piperazin-1-yl)-6-morpholin-4-yl-pyridine-2-carboxylic acid (3-ethyl-1H-indol-5-yl)-amide]
≥ 1000	COCCN(C)c1cc(C(=O)Nc2cccc(S(C)(=O)=O)c2)nc(N2CCOCC2)n1 [Compound 231, 6-[(2-Methoxy-ethyl)-methyl-amino]-2-morpholin-4-yl-pyrimidine-4-carboxylic acid (3-methanesulfonyl-phenyl)-amide]
≥ 1000	CC(=O)Nc1ccccc1NC(=O)c1cc(OCCN2CCOCC2)nc(N2CCOCC2)n1 [Compound 49, 2-Morpholin-4-yl-6-(2-morpholin-4-yl-ethoxy)-pyrimidine-4-carboxylic acid (2-acetylamino-phenyl)-amide]
< 1000	CON(CCN1CCOCC1)c1cc(C(=O)Nc2ccc3[nH]c(C)c(C)c3c2)nc(N2CCOCC2)n1 [Compound 195, N-(2,3-dimethyl-1H-indol-5-yl)-6-(methoxy(2-morpholinoethyl)amino)-2-morpholinopyrimidine-4-carboxamide]
< 1000	Cc1[nH]c2ccc(NC(=O)c3cc(N4CCC(O)CC4)nc(N4CCOCC4)n3)cc2c1C [Compound 173, 6-(4-Hydroxy-piperidin-1-yl)-2-morpholin-4-yl-pyrimidine-4-carboxylic acid (2,3-dimethyl-1H-indol-5-yl)-amide]
< 1000	COCCN(C)c1cc(C(=O)Nc2cccc(-c3csc(C)n3)c2)nc(N2CCOCC2)n1 [Compound 245, 6-[(2-Methoxy-ethyl)-methyl-amino]-2-morpholin-4-yl-pyrimidine-4-carboxylic acid [3-(2-methyl-thiazol-4-yl)-phenyl]-amide]
≥ 1000	Cn1c(=O)sc2cc(NC(=O)Nc3cc(OCCN4CCOCC4)nc(N4CCOCC4)n3)ccc21 [Compound 133, 1-(3-Methyl-2-oxo-2,3-dihydro-benzothiazol-6-yl)-3-[2-morpholin-4-yl-6-(2-morpholin-4-yl-ethoxy)-pyrimidin-4-yl]-urea]
< 1000	Cc1[nH]c2ccc(NC(=O)c3cc(N(C)CC(N)=O)nc(N4CCOCC4)n3)cc2c1C [Compound 117, 6-(Carbamoylmethyl-methyl-amino)-2-morpholin-4-yl-pyrimidine-4-carboxylic acid (2,3-dimethyl-1H-indol-5-yl)-amide]

IC50 [nM]	SMILES
≥ 1000	Cc1[nH]c2ccc(NC(=O)c3cc(N4CCOCC4)nc(OCCc4ccccn4)n3)cc2c1C [Compound 63, 6-Morpholin-4-yl-2-(2-pyridin-2-yl-ethoxy)-pyrimidine-4-carboxylic acid (2,3-dimethyl-1H-indol-5-yl)-amide]
< 1000	CN(CCO)c1cc(C(=O)Nc2cccc(-n3cccc3)c2)nc(N2CCOCC2)n1 [Compound 304, 6-[(2-Hydroxy-ethyl)-methyl-amino]-2-morpholin-4-yl-pyrimidine-4-carboxylic acid (3-pyrrol-1-yl-phenyl)-amide]
≥ 1000	O=C(Nc1cccc(Br)c1)c1cc(OCCN2CCOCC2)nc(N2CCOCC2)n1 [Compound 47, 2-Morpholin-4-yl-6-(2-morpholin-4-yl-ethoxy)-pyrimidine-4-carboxylic acid (3-bromo-phenyl)-amide]
< 1000	Cc1[nH]c2ccc(NC(=O)Nc3cc(OCCN4CCOCC4)nc(N4CCOCC4)n3)cc2c1C [Compound 323, 1-(2,3-Dimethyl-1H-indol-5-yl)-3-[2-morpholin-4-yl-6-(2-morpholin-4-yl-ethoxy)-pyrimidin-4-yl]-urea]
< 1000	O=C(Nc1cccc(-n2cccn2)c1)c1cc(OCCN2CCOCC2)nc(N2CCOCC2)n1 [Compound 313, 2-Morpholin-4-yl-6-(2-morpholin-4-yl-ethoxy)-pyrimidine-4-carboxylic acid (3-pyrazol-1-yl-phenyl)-amide]
< 1000	Cc1[nH]c2ccc(NC(=O)c3cc(NCCO)nc(N4CCOCC4)n3)cc2c1C [Compound 194, N-(2,3-dimethyl-1H-indol-5-yl)-6-(2-hydroxyethylamino)-2-morpholinopyrimidine-4-carboxamide]
< 1000	CONc1cc(C(=O)Nc2cccc(N(C)C)c2)nc(N2CCOCC2)n1 [Compound 196, N-(3-(dimethylamino)phenyl)-6-(methoxyamino)-2-morpholinopyrimidine-4-carboxamide]
< 1000	CN(CCO)c1cc(C(=O)Nc2cccc(N3CCCC3)c2)nc(N2CCOCC2)n1 [Compound 310, 6-[(2-Hydroxy-ethyl)-methyl-amino]-2-morpholin-4-yl-pyrimidine-4-carboxylic acid (3-pyrrolidin-1-yl-phenyl)-amide]
≥ 1000	O=C(Nc1ccc2c(c1)CCC2)c1cc(OCCN2CCOCC2)nc(N2CCOCC2)n1 [Compound 40, 2-Morpholin-4-yl-6-(2-morpholin-4-yl-ethoxy)-pyrimidine-4-carboxylic acid indan-5-ylamide]
≥ 1000	COCCN(C)c1cc(C(=O)Nc2ccc(N3CCOCC3)c(C(N)=O)c2)nc(N2CCOCC2)n1 [Compound 234, 6-[(2-Methoxy-ethyl)-methyl-amino]-2-morpholin-4-yl-pyrimidine-4-carboxylic acid (3-carbamoyl-4-morpholin-4-yl-phenyl)-amide]
< 1000	CCc1c(C)[nH]c2ccc(NC(=O)Nc3cc(N4CCN(C(C)=O)CC4)nc(N4CCOCC4)n3)cc12 [Compound 266, 1-(6-(4-acetylpiperazin-1-yl)-2-morpholinopyrimidin-4-yl)-3-(3-ethyl-2-methyl-1H-indol-5-yl)urea]
< 1000	Cc1[nH]c2ccc(NC(=O)c3cc(NCC(=O)NC4CCCC4)nc(N4CCOCC4)n3)cc2c1C [Compound 110, 6-(Cyclopentylcarbamoylmethyl-amino)-2-morpholin-4-yl-pyrimidine-4-carboxylic acid (2,3-dimethyl-1H-indol-5-yl)-amide]
< 1000	O=C(Nc1ccc2[nH]ccc2c1)c1cc(OCCc2ccccn2)nc(N2CCOCC2)n1 [Compound 4, 2-Morpholin-4-yl-6-(2-pyridin-2-yl-ethoxy)-pyrimidine-4-carboxylic acid (1H-indol-5-yl)-amide]
≥ 1000	O=C(Nc1cccc(-n2ccnc2)c1)Nc1cc(OCCN2CCOCC2)nc(N2CCOCC2)n1 [Compound 328, 1-(3-Imidazol-1-yl-phenyl)-3-[2-morpholin-4-yl-6-(2-morpholin-4-yl-ethoxy)-pyrimidin-4-yl]-urea]
≥ 1000	O=C(Nc1cccc(O)c1)C(=O)Nc1cc(N2CCOCC2)nc(OCCc2ccccn2)n1 [Compound 87, N-(3-Hydroxy-phenyl)-N′-[6-morpholin-4-yl-2-(2-pyridin-2-yl-ethoxy)-pyrimidin-4-yl]-oxalamide]
≥ 1000	Cc1ccc(NC(=O)c2cc(OCCN3CCOCC3)nc(N3CCOCC3)n2)cn1 [Compound 297, 2-Morpholin-4-yl-6-(2-morpholin-4-yl-ethoxy)-pyrimidine-4-carboxylic acid (6-methyl-pyridin-3-yl)-amide]
< 1000	CNc1cccc(NC(=O)c2cc(OCCN3CCOCC3)nc(N3CCOCC3)n2)c1 [Compound 280, 2-Morpholin-4-yl-6-(2-morpholin-4-yl-ethoxy)-pyrimidine-4-carboxylic acid (3-methylamino-phenyl)-amide]
